Measurements: ChEMBL document CHEMBL1144554, “In vitro cytotoxicity evaluation of some substituted isatin derivatives” (Bioorg Med Chem, 2007)
Active and inactive are the calls of the source. The rule behind the calls is not given here.

Legend:
[1] = tested on: U-937; test: Cytotoxicity against human U937 cells; assay type: ADME, cell-based
[2] = tested on: MCF7; test: Cytotoxicity against human MCF7 cells; assay type: cell-based
[3] = tested on: PC-3; test: Cytotoxicity against human PC3 cells; assay type: cell-based
[4] = tested on: HCT-116; test: Cytotoxicity against human HCT116 cells; assay type: cell-based
[5] = tested on: MDA-MB-231; test: Cytotoxicity against human MDA-MB-231 cells; assay type: cell-based
[6] = tested on: Jurkat; test: Cytotoxicity against human Jurkat cells; assay type: cell-based
[7] = biological target: T1, Caspase-7 (Homo sapiens) (UniProt P55210); test: Activation of caspase 7 in Jurkat cells after 5 hrs by apoptosis assay; assay type: cell-based
T1 sequence (whole entry): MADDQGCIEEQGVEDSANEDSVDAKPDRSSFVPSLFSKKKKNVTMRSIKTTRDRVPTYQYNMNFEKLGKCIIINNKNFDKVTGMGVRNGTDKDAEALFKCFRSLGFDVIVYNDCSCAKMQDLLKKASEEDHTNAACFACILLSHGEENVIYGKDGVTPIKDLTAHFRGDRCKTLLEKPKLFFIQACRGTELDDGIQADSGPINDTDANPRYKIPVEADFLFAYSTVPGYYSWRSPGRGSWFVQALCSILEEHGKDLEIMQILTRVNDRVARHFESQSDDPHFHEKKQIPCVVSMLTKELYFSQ

[8] = biological target: T2, Caspase-3 (Homo sapiens) (UniProt P42574); test: Activation of caspase 3 in Jurkat cells after 5 hr by apoptosis assay; assay type: cell-based
T2 sequence (whole entry): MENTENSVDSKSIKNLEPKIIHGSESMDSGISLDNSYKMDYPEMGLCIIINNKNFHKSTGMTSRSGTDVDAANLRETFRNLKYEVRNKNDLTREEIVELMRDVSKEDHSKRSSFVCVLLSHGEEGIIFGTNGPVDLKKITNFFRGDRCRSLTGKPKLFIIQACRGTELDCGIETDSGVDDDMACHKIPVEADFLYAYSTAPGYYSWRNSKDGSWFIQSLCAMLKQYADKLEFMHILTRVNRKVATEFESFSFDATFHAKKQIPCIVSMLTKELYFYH

[9] = biological target: Cyclin-dependent kinase 2 (Homo sapiens) (UniProt P24941); test: Inhibition of CDK2 at 100 uM

SMILES	IC50 [1]	further results
O=C1Nc2c(Br)cc(Br)cc2/C1=N/c1ccccc1	13.7 µM	–
O=C1Nc2c(cc(Br)cc2[N+](=O)[O-])C1=O	257 µM	–
O=C1Nc2cc(Br)c([N+](=O)[O-])cc2C1=O	17.1 µM	–
O=C1Nc2cc(Br)ccc2C1=O	74.8 µM	–
Oc1[nH]c2ccccc2c1/N=N/c1ccccc1	> 211 µM	–
O=C1Nc2ccc([N+](=O)[O-])cc2C1=O [5-NITROISATIN]	132 µM	–
O=C1Nc2ccc(Br)cc2C1=O	64.5 µM	–
O=C1Nc2ccccc2C1=O [ISATIN]	565 µM	–
O=C1Nc2c(I)cc(I)cc2C1=O	7.85 µM	IC50 [2]: 18.4 µM; IC50 [3]: 71.9 µM; IC50 [4]: 24 µM; IC50 [5]: 41.8 µM; IC50 [6]: 20.9 µM
O=C1Nc2c(Br)cccc2C1=O	83 µM	–
O=C1Nc2ccc(F)cc2C1=O [5-FLUOROISATIN]	98.4 µM	–
O=C1Nc2ccc(I)cc2C1=O [5-IODOISATIN]	53.4 µM	–
COc1ccc2c(c1)C(=O)C(=O)N2 [5-METHOXYISATIN]	420 µM	–
O=C1Nc2cc(Br)c(Br)cc2C1=O	11.6 µM	IC50 [2]: 20.2 µM; IC50 [3]: 41 µM; IC50 [4]: 37.3 µM; IC50 [5]: 41.7 µM; IC50 [6]: 20.2 µM
O=C1Nc2c(cc(Br)c(Br)c2Br)C1=O	6.76 µM	Activity [7]: Active; IC50 [2]: 13.3 µM; IC50 [3]: 25.9 µM; Activity [8]: Active; IC50 [4]: 15.9 µM; IC50 [5]: 21.8 µM; IC50 [6]: 5.8 µM
O=C1Nc2c(Br)cc([N+](=O)[O-])cc2C1=O	> 369 µM	–
CN1C(=O)C(=O)c2ccccc21	238 µM	–
O=C1Nc2c(Br)cc(Br)cc2C1=O	–	inhibition [9]: 44%
O=C1Nc2cccc(Br)c2C1=O	214 µM	–
